In patent US11339169B2, “P2X3 and/or P2X2/3 compounds and methods” (Asana BioSciences, LLC, priority 2016, dated 2022):
“And” between values parts separate entries of the source, which are not always exact repeats. Equal values may be shown once.

Columns and labels:
hP2X3 = molecular target: T1, hP2X3 (Homo sapiens, UniProt P56373); assay: FLIPR intracellular calcium assay, hP2X3; type: cell-based; conditions: human P2X3-HEK cells, agonist at EC75
T1 construct: host or cells: HEK (hP2X3-HEK)
T1 sequence (P56373 1-397): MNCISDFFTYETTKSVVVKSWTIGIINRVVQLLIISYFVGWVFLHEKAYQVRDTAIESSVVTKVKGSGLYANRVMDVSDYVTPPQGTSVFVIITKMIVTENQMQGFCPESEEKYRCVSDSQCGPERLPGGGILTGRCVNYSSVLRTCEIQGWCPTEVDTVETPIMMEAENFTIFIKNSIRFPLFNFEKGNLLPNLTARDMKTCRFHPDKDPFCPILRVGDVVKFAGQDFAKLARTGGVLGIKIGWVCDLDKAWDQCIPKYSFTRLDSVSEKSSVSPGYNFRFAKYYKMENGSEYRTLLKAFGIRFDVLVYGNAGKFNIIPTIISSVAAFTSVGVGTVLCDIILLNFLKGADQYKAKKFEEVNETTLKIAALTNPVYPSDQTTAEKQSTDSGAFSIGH
Text: (§1) The FLIPR® assay utilizes cells which express human or rat P2X3 or P2X2/3 receptors. Recombinant cells expressing hP2X3 (Cat #6188) and hP2X2/3 (Cat #6179) were procured from Chantest Corp. Rat P2X2 (NCBI Accession No: U14414) was amplified by PCR from PC12 cDNA (a rat adrenal medulla cell line). The PCR product obtained containing the protein coding sequence of rat P2X2 was cloned into EcoRV-digested and dephosphorylated vector plRES-puro3 within the multiple cloning site (MCS). See, FIG. 1A.
(§2) (i) Intracellular Calcium Assay Protocol for Screening Compounds
(§3) Cryo-vial containing 6×10^6 cells (human P2X3-HEK/human P2X2/3-TRex293/rat P2X2/3-TRex293/rat P2X3 TRex-CHO) was thawed in a 37° C. water bath. Cells were suspended in 20 mL of respective cell plating media (See annexure for composition) in a 50 mL centrifuge tube. The cell viability was checked with the help of Trypan Blue dye. Upon washing, cells were plated in a black 384-well clear bottomed, sterile poly-D-lysine coated plate such that, each well contained 10,000 cells (15,000/well for hP2X3) in 30 μL cell plating media. The plate was incubated in a 5% CO2 incubator at 37° C. for 24 h.
(§4) The next day, prior to the assay, the cell plating media was removed from each well by decanting and gentle tapping. Thirty μL of FLIPR Calcium 4 dye solution was added to each well. The plate was incubated at 37° C. for 45 min (60 min for hP2X3). The plate was next equilibrated at room temperature for 15 minutes before placing it in a 384 well FLIPR for the assay.
(§5) Compounds were dissolved in DMSO and serially diluted following 11 point half log (3.16 fold) dilution with a starting concentration of 2 mM. Dilutions were mixed with assay buffer just before performing the assay.
(§6) Compounds were added to the respective wells of the assay-ready cell plate with the help of the FLIPR and fluorescence readings were captured for 5 min to observe any possible agonistic property of the compounds. The plate was then incubated at room temperature for 15 min. The cells were stimulated with respective agonist EC75 concentration and the fluorescence readings were captured for another 5 min by FLIPR. The difference in fluorescence readings in presence of the compounds were compared with that of the control wells (wells having no compound) to calculate the inhibitory potency of the compounds. The IC50 values of the compounds were determined using the Graph pad Prism software.
(§7) (ii) Cell Plating Media for hP2X3-HEK and hP2X2/3-TRex293 Cells • DMEM/F12 (1:1) HAM media (Invitrogen; Cat #11039) • 1×NEAA (Invitrogen; Cat #11140) • 25 mM HEPES (Invitrogen; Cat #15630) • 1 mM sodium pyruvate (Invitrogen; Cat #11360) • 10% tetracycline negative FBS (PAA; Cat #A15-209) • 1 μg/mL doxycycline (Clontech; Cat #63131) [for hP2X2/3-TRex293 cells only]
(§8) (v) Assay Buffer Composition • HBSS (Invitrogen Cat #14025) • 20 mM HEPES (Invitrogen Cat #15630) • 0.01% F127 (Sigma Cat #P2443) • 1.8 mM CaCl2 (Sigma Cat #C5080) • pH adjusted to 7.4
(§9) (vi) Dye Solution Composition • 1× FLIPR Calcium 4 dye in assay buffer (Molecular devices Cat #R8141) • 1.8 mM Probenecid (Sigma Cat #P8761) • pH adjusted to 7.4

hP2X2/3 = molecular target: T2, hP2X2/3 (Homo sapiens, UniProt P56373+Q9UBL9); assay: FLIPR intracellular calcium assay, hP2X2/3; type: cell-based; conditions: human P2X2/3-TRex293 cells, agonist at EC75
T2 construct: host or cells: TRex293 (hP2X2/3-TRex293), doxycycline-induced
T2 sequence (P56373 1-397): T1 sequence (P56373 1-397)
T2 sequence (Q9UBL9 1-471): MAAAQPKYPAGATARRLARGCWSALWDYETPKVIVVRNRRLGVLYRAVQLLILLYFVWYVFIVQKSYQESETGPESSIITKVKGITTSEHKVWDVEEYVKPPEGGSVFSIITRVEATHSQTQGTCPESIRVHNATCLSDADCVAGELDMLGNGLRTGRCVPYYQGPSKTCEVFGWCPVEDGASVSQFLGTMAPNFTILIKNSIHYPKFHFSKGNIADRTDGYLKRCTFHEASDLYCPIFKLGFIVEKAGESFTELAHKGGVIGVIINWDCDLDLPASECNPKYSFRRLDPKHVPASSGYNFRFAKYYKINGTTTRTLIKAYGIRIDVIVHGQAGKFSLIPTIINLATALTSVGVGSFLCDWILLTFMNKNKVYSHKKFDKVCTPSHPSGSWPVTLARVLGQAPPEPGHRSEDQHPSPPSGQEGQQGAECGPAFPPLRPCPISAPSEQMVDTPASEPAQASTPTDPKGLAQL
Text: as §1, §2, §3, §4, §5, §6, §7, §8, §9

IC50 (hP2X3) [µM]	IC50 (hP2X2/3)	SMILES
0.001 to 0.1	0.001 to 0.1 µM	CCC(CC)n1ncc2nc(N3CCN(C(C)=O)CC3)nc(N[C@H](C)c3cnc4ccccc4c3)c21 [Example 22]
0.001 to 0.1	1 to 10 µM	CCOc1ccc([C@H](C)Nc2nc(N3CCN(C(C)=O)CC3)nc3cnn(C(CC)CC)c23)cc1 [Example 33]
0.001 to 0.1	1 to 10 µM	C[C@@H](Nc1nc(N2CCN(C)C(=O)C2)nc2cnn(C3CCC3)c12)c1cnc2ccccc2c1 [Example 49]
0.001 to 0.1	1 to 10 µM	CCOc1ccc(C(C)Nc2nc(N3CCN(C(C)=O)CC3)nc3cnn(C(CC)CC)c23)cc1 (stereo not shown) [Example 30]
0.001 to 0.1	0.1 to 1 µM	CC[C@H](C)n1ncc2nc(-c3cnn(CCF)c3)nc(NC(CO)c3cnc4ccccc4c3)c21 (stereo partly shown) [Example 122]
0.001 to 0.1	0.001 to 0.1 µM	CCC(CC)n1ncc2nc(N3CCN(C(N)=O)CC3)nc(N[C@H](C)c3cnc4ccccc4c3)c21 [Example 51]
0.001 to 0.1	1 to 10 µM	CCC(C)n1ncc2nc(N3CCN(S(N)(=O)=O)CC3)nc(N[C@@H](c3cnc4ccccc4c3)C3CC3)c21 (stereo partly drawn) [Example 108, 4-{1-sec-Butyl-7-[((R)-cyclopropyl-quinolin-3-yl-methyl)-amino]-1H-pyrazolo[4,3-d]pyrimidin-5-yl}-piperazine-1-sulfonic acid amide]
0.001 to 0.1	0.001 to 0.1 µM	CCC(CC)n1ncc2nc(N3CCN(C(C)=O)CC3)nc(N[C@@H](c3cnc4ccccc4c3)C3CC3)c21 [Example 44]
0.001 to 0.1	1 to 10 µM and 0.1 to 1 µM	CCC(C)n1ncc2nc(-c3cnn(CCF)c3)nc(N[C@H](C)c3cn4ccc(C)cc4n3)c21 (stereo partly shown) [Example 123]
0.001 to 0.1	0.1 to 1 µM	CCC(CC)n1ncc2nc(N3CCN(C(C)=O)CC3)nc(NC(C)c3ccc4oc(C5CC5)cc4c3)c21 (stereo not shown) [Example 55]
0.001 to 0.1	0.1 to 1 µM	CCC(C)n1ncc2nc(N3CCN(C(C)=O)CC3)nc(N[C@@H](c3cnc4ccccc4c3)C3CC3)c21 (stereo partly shown) [Example 56]
0.001 to 0.1	0.1 to 1 µM	CCC(CC)n1ncc2nc(-n3ccnn3)nc(N[C@@H](c3cnc4ccccc4c3)C3CC3)c21 [Example 74]
0.001 to 0.1	1 to 10 µM	CCC(CC)n1ncc2nc(N3CCN(C(C)=O)CC3)nc(NCC3(c4ccc(Cl)cc4)CCC3)c21 [Example 29]
0.001 to 0.1	0.1 to 1 µM	CCC(CC)n1ncc2nc(N3CCN(C(C)=O)CC3)nc(NC(C)c3ccc4sccc4c3)c21 (stereo not shown) [Example 57]
0.001 to 0.1	1 to 10 µM	CC(=O)N1CCN(c2nc(N[C@H](C)c3cnc4ccccc4c3)c3c(cnn3CC(C)C)n2)CC1 [Example 16]
0.001 to 0.1	0.1 to 1 µM	CCC(CC)n1ncc2nc(N3CCN(C(C)=O)CC3)nc(NC(C)c3cnc4ccc(F)cc4c3)c21 (stereo not shown) [Example 42]

IC50 (hP2X3) [µM]	IC50 (hP2X2/3)	SMILES
0.001 to 0.1	1 to 10 µM	COCC(C)n1ncc2nc(N3CCN(C(C)=O)CC3)nc(N[C@H](C)c3cnc4ccccc4c3)c21 (stereo partly shown) [Example 24]
0.001 to 0.1	1 to 10 µM	CCC(C)n1ncc2nc(N3CCN(C(C)=O)CC3)nc(N[C@H](CC)c3cnc4ccccc4c3)c21 (stereo partly shown) [Example 43]
0.001 to 0.1	1 to 10 µM	CC(=O)N1CCN(c2nc(N[C@H](C)c3cnc4ccccc4c3)c3c(cnn3C3CCCC3)n2)CC1 [Example 25]
0.001 to 0.1	0.1 to 1 µM	CC(C)n1ncc2nc(N3CCN(C)C(=O)C3)nc(N[C@@H](c3cnc4ccccc4c3)C3CC3)c21 [Example 59]
0.1 to 1	> 10 µM	CC(=O)N1CCN(c2nc(NCc3cnc4ccccc4c3)c3c(cnn3C(C)C)n2)CC1 [Example 14]
0.001 to 0.1	1 to 10 µM	CCC(C)n1nc2c(N[C@H](C)c3cnc4ccccc4c3)nc(N3CCN(C(C)=O)CC3)nc2c1C#N (stereo partly shown) [Example 106]
0.001 to 0.1	1 to 10 µM	CCC(C)n1ncc2nc(-c3nnc(C)o3)nc(N[C@@H](c3cnc4ccccc4c3)C3CC3)c21 (stereo partly drawn) [Example 125, [1-sec-Butyl-5-(5-methyl-[1,3,4]oxadiazol-2-yl)-1H-pyrazolo[4,3-d]pyrimidin-7-yl]-((R)-cyclopropyl-quinolin-3-yl-methyl)-amine]
0.001 to 0.1	0.001 to 0.1 µM	CCC(C)n1ncc2nc(N3CCN(C(=N)N)CC3)nc(N[C@@H](c3cnc4ccccc4c3)C3CC3)c21 (stereo partly drawn) [Example 112, 4-{1-sec-Butyl-7-[((R)-cyclopropyl-quinolin-3-yl-methyl)-amino]-1H-pyrazolo[4,3-d]pyrimidin-5-yl}-piperazine-1-carboxamidine]
0.001 to 0.1	0.1 to 1 µM	CC(=O)N1CCN(c2nc(N[C@@H](c3cnc4ccccc4c3)C3CC3)c3c(cnn3C(C)C(C)C)n2)CC1 (stereo partly shown) [Example 62]
0.001 to 0.1	> 10 µM	CC(=O)N1CCN(c2nc(N[C@H](C)c3cnc4ccccc4c3)c3nn(C(C)C)cc3n2)CC1 [Example 1, 1-{4-[2-Isopropyl-7-((R)-1-quinolin-3-yl-ethylamino)-2H-pyrazolo[4,3-d]pyrimidin-5-yl]-piperazin-1-yl}-ethanone]
0.001 to 0.1	1 to 10 µM	CC(C)n1ncc2nc(N3CCN(C)C(=O)C3)nc(N[C@H](C)c3cnc4ccccc4c3)c21 [Example 15]
0.001 to 0.1	1 to 10 µM	CC(=O)N1CCN(c2nc(NC(C)c3cnc4ccccc4c3)c3c(cnn3C(C)C)n2)CC1 (stereo not shown) [Example 11]
0.001 to 0.1	1 to 10 µM	CCN1CCN(c2nc(N[C@H](C)c3cnc4ccccc4c3)c3c(cnn3C(C)C)n2)CC1=O [Example 23]
0.001 to 0.1	1 to 10 µM	CCC(C)n1ncc2nc(N3CCN(C(C)=O)CC3)nc(NC(C)c3ccc(-c4ccccc4)nc3)c21 (stereo not shown) [Example 52]
0.001 to 0.1	1 to 10 µM	CC(=O)N1CCN(c2nc(N[C@H](C)c3cnc4ccccc4c3)c3c(n2)c(Br)nn3C(C)C)CC1 [Example 100]
0.001 to 0.1	1 to 10 µM	CCC(C)n1ncc2nc(-n3cc(C(N)=O)nn3)nc(N[C@@H](c3cnc4ccccc4c3)C3CC3)c21 (stereo partly drawn) [Example 126, 1-{1-sec-Butyl-7-[((R)-cyclopropyl-quinolin-3-yl-methyl)-amino]-1H-pyrazolo[4,3-d]pyrimidin-5-yl}-1H-[1,2,3]triazole-4-carboxylic Acid Amide]
